According to patent US20220273590A1, “COMPOUNDS FOR PREVENTION AND TREATMENT OF POST-OPERATIVE COGNITIVE DYSFUNCTION” (ABREXA PHARMACEUTICALS, INC., priority 2019, published 2022):

Key:
animal model of POCD = assay: Novel Object and Novel Location Recognition (NOR/NLR) after abdominal surgery; format: in vivo, Wistar rats
Protocol: Male Wistar rats (˜350 g) were randomly divided into 4 experimental groups; non-surgery; control abdominal surgery; surgery+acute J147 treatment (7 mg/rat by gavage, 4-5 hours before surgery); surgery+chronic J147 (500 mg/kg food, 1 week before surgery until the end of the study). Timed blood samples were collected. Days 9-11 post surgery, general behavior (Open field: OF) and cognitive performance (Novel Object/Novel Location Recognition: NOR/NLR; Morris Water Maze: MWM) were tested. Day 14, rats were sacrificed and blood and brain tissue were collected for further analyses. (Neuro)inflammation was examined by circulating cytokine levels and microglia activation in the brain. Abdominal surgery was performed as described previously by Hovens et al., 2014. Rats were anaesthetized using sevoflurane (±2.5% in air/O2=2/1) and received 0.01 mg/kg buprenorphine s.c. A heating blanket was used to preserve body temperature. An incision was made along the linea alba and the intestines were exteriorised. The upper mesenteric artery was isolated from surrounding tissue and clamped for a period of 30 minutes during which the intestines and surgical wound were covered with gauze soaked in saline, to prevent dehydration. During this time the animals were equipped with an indwelling jugular vein catheter to mimic insertion of a venous line in patients and allow timed blood sampling. For that, an incision was made at the subclavical region, the jugular vein was freed from surrounding tissue and a catheter was introduced and advanced into the vena cava, just above the right atrium. The other end of the catheter was guided subcutaneously to the head, and fixated on the skull with dental cement. The catheter was filled with PVP dissolved in heparin solution and closed with a plastic plug. After subsequent removal of the mesenteric artery clamp, the intestines were gently placed back and the abdominal wall and skin were closed separately by sutures. Clamping and reperfusion were visually verified by absence or presence of pulsation in the mesenteric artery distal to the clamp site. From induction to recovery, the procedure takes approximately 60 minutes. Post-operatively, the animals were allowed to recover and subsequently were housed individually. Rats were weighed daily at the last hour of the dark period. Maximal weight loss within the first 5 days post-surgery was taken as measure of experienced severity of surgery. Behavioral tests were performed in the dark (active) period of the rats. The lights were turned on at 9:00 p.m. and off at 9:00 a.m. […] General exploratory behavior and anxiety was tested in the Open field (OF) test; spatial learning, spatial memory and cognitive flexibility in the Morris Water Maze (MWM); spatial working memory in the novel location recognition test (NL); the novel object recognition test (NO) for working memory on object recognition. The Novel Object and Novel Location Recognition were tested in random order in one procedure to assess spatial short term memory and object memory. For this test, an open square box (50×50×40 cm) with 2 transparent and two grey walls was used. Objects used in the test were selected from a pilot study, investigating the preferences of rats for different objects. Rats were habituated to the box for 3 minutes, the day before the test. The test consisted of four phases, each phase took 3 minutes. Between each phase there was a break of 45 seconds in which the rat remained in the test box. The first phase was performed in an empty box, in the second phase two identical objects were placed in both corners at the nearest end of the box. In this phase, the rat was allowed to explore both objects. After this exploration phase either a novel object test or novel location test was performed. Before the start of each phase both objects were removed from the box and cleaned with 70% ethanol. […]

[1] = Body weight and food intake in the POCD study; format: in vivo, Wistar rats
From the text: A total of 60 male Wistar rats (Wu-Wistar, Envigo, The Netherlands) were studied in 5 cohorts. For that, rats were ordered in 5 groups of different weight classes (220-280 g) to ensure that each group would be around 350 g at the time of surgery. Rats arrived at the facility at least 2 weeks before start of the experiments, and were put on reversed light:dark cycle 12:12 with the lights out at 09:00 am. Rats were housed in groups of 2-3 in standard cages under controlled conditions (temperature of 20+/−2 degrees and humidity of 50% +/−10%). The rats were fed with water and Teklad (Envigo, 2018) chow food ad libitum. After surgery, rats were housed individually. Approval of all experiments was given by the applicable animal and welfare committee of the Netherlands.
One week before surgery, chronic treatment J147 treatment started and continued until the end of the experiment. The day of surgery, rats for acute treatment received their J147 (4-5 hours before surgery) by gavage, while the designated control rats received vehicle gavage. Rats were subjected to abdominal surgery, and allowed to recover. After that rats were housed individually. Non-surgery control were placed in individual cages at the same time. Blood samples were collected from the jugular vein catheter at the time of surgery (plasma levels of J147) and at 1, 6 and 24 hours after surgery (plasma inflammatory markers). The first week post-surgery, rats were weighed daily and food intake was measured. Day 7-12 post-surgery rats were subjected to behavioral testing regarding general exploratory behavior and cognitive performance. On Day 14 rats were sacrificed, blood samples were collected from cardiac puncture, CSF was collected, and brain tissue was collected and processed for immunohistochemistry or molecular analyses.
For chronic oral treatment, J147 was added to the food (Teklad 2018, Envigo) at a concentration of 500 mg/kg. J147 was provided by Abrexa and Envigo prepared the food. […] After surgery food intake was measured daily during the last hour of the light phase. […]

## COc1cccc(/C=N/N(C(=O)C(F)(F)F)c2ccc(C)cc2C)c1 [J147]
Animal model of POCD; Surgery + acute J147, n = 12, random = 50%
  NOR score (novel object preference): 60 ± 5%
Animal model of POCD; Surgery + acute J147, n = 15, mean ± SEM
  Baseline exploration (% time): 23.6 ± 2.3 % time
Animal model of POCD; Surgery + acute J147, n = 15, random = 50%, significantly different from random
  NLR score (novel location preference): 61 ± 4%
Animal model of POCD; Surgery + chronic J147, n = 11, random = 50%, significantly different from random
  NLR score (novel location preference): 70 ± 6%
Animal model of POCD; Surgery + chronic J147, n = 12, random = 50%, significantly different from random
  NOR score (novel object preference): 58 ± 4%
Animal model of POCD; Surgery + chronic J147, n = 15, mean ± SEM
  Baseline exploration (% time): 16.8 ± 2.5 % time
Animal model of POCD; acute and chronic J147 versus control groups
  difference between the groups in preference for the novel or relocated object: No significant differences
Animal model of POCD; both treated groups (acute and chronic J147)
  NLR test performance versus random: performed above random
Animal model of POCD; chronically treated rats
  NLR performance compared with other groups: performed best in NLR
  NOR, effect of treatment: not affected
[1]; chronic J147 500 mg/kg food, week before surgery, control fed rats 33.5±3.0 g
  body weight gained during first week on the J147 diet: 32.0 ± 1.8 g
[1]; chronic J147 diet, individual housing, surgery control food 20±1 g
  average food eaten during the first 10 days after surgery: 20 ± 1 g
[1]; chronically treated rats (J147 500 mg/kg food)
  body weight loss after surgery: lost significantly less body weight after surgery
